Test results as given in article PMC5761213 (Journal of Pharmaceutical Analysis, 2014).
Where two headings read alike, the source gives them in different places.

Columns and labels:
[1] = molecular target: T1, CYP1A2 (Homo sapiens, UniProt P05177); experiment: Effect of DMSO on CYP activity in human liver microsomes; format: in vitro ADME
T1 sequence (P05177 1-516): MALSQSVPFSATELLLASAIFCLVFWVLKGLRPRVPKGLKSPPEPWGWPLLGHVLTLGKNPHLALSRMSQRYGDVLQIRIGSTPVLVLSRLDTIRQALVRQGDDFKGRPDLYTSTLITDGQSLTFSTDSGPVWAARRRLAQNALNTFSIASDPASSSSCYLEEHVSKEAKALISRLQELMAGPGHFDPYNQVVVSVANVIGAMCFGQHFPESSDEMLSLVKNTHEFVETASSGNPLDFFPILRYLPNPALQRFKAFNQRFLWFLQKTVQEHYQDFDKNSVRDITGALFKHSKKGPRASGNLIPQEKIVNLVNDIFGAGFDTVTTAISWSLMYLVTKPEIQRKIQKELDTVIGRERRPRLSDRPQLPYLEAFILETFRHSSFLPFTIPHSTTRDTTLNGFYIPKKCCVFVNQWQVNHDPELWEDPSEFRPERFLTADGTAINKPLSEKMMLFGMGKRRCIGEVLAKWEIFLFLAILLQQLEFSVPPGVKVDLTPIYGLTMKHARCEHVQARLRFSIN

[2] = molecular target: T2, CYP2C19 (Homo sapiens, UniProt P33261); experiment: as above; format: in vitro ADME; details: for activity loss: percent decrease of metabolite formation
[3] = molecular target: T3, CYP2C8 (Homo sapiens, UniProt P10632); experiment: as above; format: in vitro ADME
T3 sequence (P10632 1-490): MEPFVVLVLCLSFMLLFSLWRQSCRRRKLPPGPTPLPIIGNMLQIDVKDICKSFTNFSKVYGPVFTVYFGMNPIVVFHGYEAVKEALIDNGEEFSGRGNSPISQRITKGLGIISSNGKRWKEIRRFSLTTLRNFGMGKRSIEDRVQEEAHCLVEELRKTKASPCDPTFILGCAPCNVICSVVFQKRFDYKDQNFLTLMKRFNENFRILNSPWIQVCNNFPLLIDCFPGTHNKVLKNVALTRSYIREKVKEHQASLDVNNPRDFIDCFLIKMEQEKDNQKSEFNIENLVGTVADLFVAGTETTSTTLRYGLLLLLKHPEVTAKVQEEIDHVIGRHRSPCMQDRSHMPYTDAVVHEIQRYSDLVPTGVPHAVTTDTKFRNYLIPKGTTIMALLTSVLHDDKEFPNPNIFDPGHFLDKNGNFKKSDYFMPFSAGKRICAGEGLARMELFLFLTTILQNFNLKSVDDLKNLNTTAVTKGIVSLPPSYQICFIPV

[4] = molecular target: CYP3A4 (Homo sapiens, UniProt P08684); experiment: as above; format: in vitro ADME; details: for activity loss: percent decrease of metabolite formation
[5] = molecular target: CYP2D6 (Homo sapiens, UniProt P10635); experiment: as above; format: in vitro ADME
[6] = molecular target: T2, CYP2C19; experiment: CYP inhibition assay in human liver microsomes, S-mephenytoin probe; format: in vitro ADME; details: IC50 calculated without SC, Single, pooled human liver microsomes, analyte-to-IS peak area ratio
[7] = molecular target: T2, CYP2C19; details: literature value, cited from earlier work
[8] = 0.5% DMSO, concentration set for the cocktail assay

Sequence of CYP2D6 (P10635 whole entry): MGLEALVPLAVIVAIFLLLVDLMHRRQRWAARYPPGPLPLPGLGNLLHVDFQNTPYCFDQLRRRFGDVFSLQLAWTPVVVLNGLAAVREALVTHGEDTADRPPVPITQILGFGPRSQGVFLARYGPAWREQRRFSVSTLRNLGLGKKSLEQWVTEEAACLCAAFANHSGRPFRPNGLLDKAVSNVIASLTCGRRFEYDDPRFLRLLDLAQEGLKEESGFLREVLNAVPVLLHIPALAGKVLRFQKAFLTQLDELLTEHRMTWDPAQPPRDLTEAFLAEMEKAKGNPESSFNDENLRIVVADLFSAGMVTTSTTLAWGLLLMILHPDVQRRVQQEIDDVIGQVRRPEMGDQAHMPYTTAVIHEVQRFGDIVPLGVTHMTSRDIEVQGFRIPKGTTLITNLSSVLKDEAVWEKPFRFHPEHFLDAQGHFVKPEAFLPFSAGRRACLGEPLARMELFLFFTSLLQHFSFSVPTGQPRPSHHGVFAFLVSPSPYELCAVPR
T2 sequence (P33261 whole entry): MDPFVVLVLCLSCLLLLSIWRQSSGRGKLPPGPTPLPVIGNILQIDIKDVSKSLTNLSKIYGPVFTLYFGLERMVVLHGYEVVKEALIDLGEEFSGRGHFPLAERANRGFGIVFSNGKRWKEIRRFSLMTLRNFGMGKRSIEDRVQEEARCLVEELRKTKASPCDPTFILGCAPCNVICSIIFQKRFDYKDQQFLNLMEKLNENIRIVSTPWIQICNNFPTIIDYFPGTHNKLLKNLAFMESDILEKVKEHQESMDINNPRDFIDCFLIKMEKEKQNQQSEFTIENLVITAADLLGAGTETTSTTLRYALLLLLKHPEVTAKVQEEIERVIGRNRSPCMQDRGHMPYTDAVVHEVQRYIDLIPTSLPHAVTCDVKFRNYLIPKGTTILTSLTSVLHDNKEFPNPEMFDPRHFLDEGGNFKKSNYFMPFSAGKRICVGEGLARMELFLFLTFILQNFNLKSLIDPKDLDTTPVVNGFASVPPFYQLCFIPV
Sequence of CYP3A4 (P08684 whole entry): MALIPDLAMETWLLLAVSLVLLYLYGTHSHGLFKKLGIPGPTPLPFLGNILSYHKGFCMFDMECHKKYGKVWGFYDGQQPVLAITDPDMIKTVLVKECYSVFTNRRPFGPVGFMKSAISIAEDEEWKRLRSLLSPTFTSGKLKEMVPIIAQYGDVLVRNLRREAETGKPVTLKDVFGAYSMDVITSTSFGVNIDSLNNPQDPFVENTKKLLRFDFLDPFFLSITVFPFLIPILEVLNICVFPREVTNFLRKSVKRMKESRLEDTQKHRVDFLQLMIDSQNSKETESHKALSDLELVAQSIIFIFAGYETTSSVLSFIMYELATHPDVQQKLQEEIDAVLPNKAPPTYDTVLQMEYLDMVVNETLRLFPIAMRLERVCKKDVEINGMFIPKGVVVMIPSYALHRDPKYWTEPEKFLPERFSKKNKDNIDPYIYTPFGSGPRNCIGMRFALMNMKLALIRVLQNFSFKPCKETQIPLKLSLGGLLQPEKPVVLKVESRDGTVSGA

Compound | reduction of metabolite formation ([1]; 0.1% DMSO) | CYP activity reduced by [1, 8] [%] | effect of DMSO on CYP activity ([1]; DMSO up to 1%) | reduction of metabolite formation ([2]; 0.1% DMSO) | activity loss ([2]; 0.5% DMSO (v/v)) [%] | CYP activity reduced by [2, 8] [%] | activity loss ([2]; 1% DMSO (v/v)) [%] | reduction of metabolite formation ([3]; 0.1% DMSO) | CYP activity reduced by [3, 8] [%] | effect of DMSO on CYP activity ([3]; DMSO up to 1%) | reduction of metabolite formation ([4]; 0.1% DMSO) | activity loss ([4]; 0.5% DMSO (v/v)) [%] | activity loss ([4]; 1% DMSO (v/v)) [%] | reduction of metabolite formation ([5]; 0.1% DMSO) | CYP activity reduced by [5, 8] [%] | activity loss ([5]; 1% DMSO (v/v), percent decrease of metabolite formation) [%] | IC50 [6] [µM] | IC50 ([7]; read-out: reported IC50) [µM] | Ki ([7]; read-out: reported Ki) [µM]
C[S+](C)[O-] [DMSO] | no significant reduction | 8 | not significantly affected | no significant reduction | 44.8 | 44 | 55.0 | no significant reduction | 11 | not significantly affected | no significant reduction | 24.4 | 52.7 | no significant reduction | 12 | 27.8 | – | – | –
C=C(C)[C@@H]1CCC2=CC(=O)C[C@@H](C)[C@]2(C)C1 [Nootkatone] | – | – | – | – | – | – | – | – | – | – | – | – | – | – | – | – | 7.19 | 9.56 | 0.5
